Reference: PMC4626104, “Inhibition on Proteasome β1 Subunit Might Contribute to the Anti-Cancer Effects of Fangchinoline in Human Prostate Cancer Cells” (PLoS ONE, 2015)

Legend:
[1] = molecular target: T1, recombinant human proteasome β1 subunit (Homo sapiens, UniProt P28072); test: Enzyme activity of recombinant proteasome catalytic β1 subunit (Z-LLE-AMC); assay type: biochemical; settings: 50 μM Z-LLE-AMC, 2 h incubation
T1 construct: His-Tag; made in house; host or cells: Escherichia coli
T1 sequence (P28072 1-239): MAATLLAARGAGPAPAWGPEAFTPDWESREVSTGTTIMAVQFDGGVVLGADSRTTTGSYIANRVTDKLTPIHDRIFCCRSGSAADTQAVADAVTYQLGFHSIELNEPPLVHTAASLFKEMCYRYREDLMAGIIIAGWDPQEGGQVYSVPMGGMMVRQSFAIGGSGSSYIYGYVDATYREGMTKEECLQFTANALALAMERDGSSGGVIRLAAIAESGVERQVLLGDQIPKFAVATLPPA
Experimental: Briefly, catalytic activity of the recombinant human proteasome β1 subunit was assayed by adding recombinant β1 subunit protein (30 μg) to 100 μL of proteasome activity assay buffer (10 mM Tris-HCL, pH 7.8, 5 mM adenosine triphosphate, 0.5 mM dithiothreitol and 5 mM MgCL2•6H2O) containing 50 μM Z-LLE-AMC in the presence of fangchinoline or tetrandrine at different concentrations or not. The hydrolase activity of the proteasome catalytic β1 subunit could release the fluorogenic AMC component from substrate Z-LLE-AMC and the AMC release was measured after 2 h incubation using a Microplate Reader Bio-Rad 550 with excitation and emission wavelengths of 360 and 465 nm, respectively.

[2] = system: T2, cellular proteasome of PC-3 cells; test: Cellular proteasome activities of PC-3 cells; assay type: cell-based, human
T2 construct: endogenous in cells; host or cells: PC-3 cells, whole cell extract
Experimental: Cells were treated with either solvent control (0.1% DMSO), fangchinoline at different concentrations, or 1 μM carfilzomib (positive control) for 24 h at 37 °C. The enzymatic activities of cellular proteasome in cell lysate were measured as reported in our previous paper. Briefly, cells were harvested, washed with PBS and then lysed in proteasome activity assay buffer for 30 min at 4°C. The homogenate was then centrifuged at 12000 × g for 30 min at 4°C. The supernatant was collected as whole cell extract and the protein content in the supernatant was measured with the Bradford reagent. Catalytic activities of cellular proteasome were assayed by adding whole cell extract (containing 30 μg protein) to 100 μL of proteasome activity assay buffer containing 50 μM fluorogenic peptide substrates such as Z-LLE-AMC for detecting C-L activity, Z-ARR-AMC for detecting T-L activity or Suc-LLVY-AMC for detecting CT-L activity, respectively. The release of fluorogenic AMC from the peptide substrates was then measured as described above.

PC-3 cells = test: Flow cytometric analysis of apoptosis (Annexin V/PI) in PC-3 cells; assay type: cell-based, human; settings: 24 h
Experimental: The induction of cell cycle arrest and apoptosis by fangchinoline in PC-3 cells was observed by using flow cytometric analysis as described in our previous reports. Briefly, for flow cytometry analysis of cell cycle, cells were collected after treatment, washed with PBS and then fixed with 70% ethanol at 4°C for overnight. After PBS washes, cells were re-suspended in staining buffer (10 mg/mL RNase A and […] propidium iodide in cold PBS) for 30 min in dark at room temperature and then analyzed using FACSCalibur Flow Cytometer. For flow cytometric analysis of apoptosis, Alexa Fluor 488 Annexin V & PI /Dead cell Apoptosis Kit (Invitrogen) was used. Cells were collected after treatment, washed with PBS and then resuspended in binding buffer and then incubated with Annexin V-FITC and propidium iodide for 15 min in dark at room temperature. Then, flow cytometric analysis was conducted and data analysis was performed with CellQuest software.

[3] = system: ubiquitinated proteins, IκB-α, Bax, p27 in PC-3 cells; test: Western blotting of ubiquitinated proteins and proteasome substrates in PC-3 cells; assay type: cell-based, human
Experimental: Western blotting assay was conducted as described before. Briefly, an aliquot of protein (100 μg) sample was loaded onto a 12% SDS gel, separated electrophoretically, and transferred to a Nitrocellulose membrane (Bio-Rad). After the membrane was incubated with 10 mM TBS with […] and 5% dehydrated skim milk to block nonspecific protein binding, the membrane was incubated with primary antibodies overnight at 4°C. The primary antibodies (all from Cell Signaling Technology) used were rabbit polyclonal antibody against human IκB-α (#4812, 1:400), Bax (#2772, 1:400), proteasome β1 subunit (PSMB6) (#13267, 1:500), β-actin (#4967, 1:400) and mouse monoclonal antibody against human p27 Kip1 (#3688, 1:400) or ubiquitin (#3936, 1:1000). After TBS washes, blots were then incubated with secondary antibody for 2 h at room temperature at a 1:1000 dilution and then visualized using chemiluminescence (Pierce Biotechnology, Rockford, IL, USA). The secondary antibodies used were HRP-linked goat anti-rabbit IgG (#7074) and HRP-linked horse anti-mouse IgG (#7076), both from Cell Signaling Technology.

COc1ccc2cc1Oc1ccc(cc1)C[C@H]1c3cc(c(OC)cc3CCN1C)Oc1c(O)c(OC)cc3c1[C@H](C2)N(C)CC3 [fangchinoline]
Inhibition of enzyme activity of recombinant proteasome β1 subunit [1]: dose-dependently inhibited
Inhibition of enzyme activity of cellular proteasome β1 subunit ([2]; 10 μM, 24 h treatment): about 50%
Effect on chymotrypsin-like (CT-L) activity of cellular proteasome ([2]; PC-3 cells, 24 h): not significantly affected
Effect on trypsin-like (T-L) activity of cellular proteasome ([2]; PC-3 cells, 24 h): not significantly affected
Inhibition on C-L activity of cellular proteasome ([2]; PC-3 cells, 24 h, doses of 1 and 10 μM): significant
Percentage (%) of apoptotic cells (Annexin^+/PI^+) (PC-3 cells; 5 μM): 6.74±1.14 %
Percentage (%) of apoptotic cells (Annexin^+/PI^+) (PC-3 cells; 8 μM): 10.79±0.51 %
Percentage (%) of apoptotic cells (Annexin^+/PI^+) (PC-3 cells; 12 μM): 13.53±0.19 %
Percentage (%) of apoptotic cells (Annexin^+/PI^+) (PC-3 cells; 18 μM): 28.10±5.93 %
Percentage (%) of apoptotic cells (Annexin^+/PI^+) (PC-3 cells; 27 μM): 37.52±4.04 %
Percentage (%) of apoptotic cells (Annexin^+/PI^+) (PC-3 cells; 40 μM): 49.77±2.23 %
Ubiquitinated IκBα (Ub-IκBα), Ub-p27 and Ub-Bax levels [3]: dose-dependently and time-dependently induced increase
Treatment time after which accumulation of ubiquitinated proteins was observed ([3]; 27 μM): 1 h
Lowest dose at which accumulation of ubiquitinated proteins was observed ([3]; 24 h treatment): 8 µM
